According to EPA's ToxValDB 9.5 (doi:10.2903/j.efsa.2005.28r):
In brackets after ≈: the same amount, converted by molar mass.

Key:
Bibionidae = conditions: chronic/long-term, duration: 28 days
Pimephales promelas = conditions: chronic/long-term; duration: 35 days; growth
Colinus virginianus = conditions: acute, oral, mortality
Daphnia magna = conditions: chronic/long-term; duration: 21 days; reproduction
Apis mellifera = conditions: acute, mortality
Oncorhynchus mykiss = conditions: acute; duration: 96 hours; mortality
Bird = conditions: reproductive; oral; feed
Tagia sp. = conditions: acute; duration: 14 days; mortality
Aphidius rhopalosiphi = conditions: acute; duration: 7 days; mortality

For CCCN(CCC)c1c([N+](=O)[O-])cc(C(F)(F)F)cc1[N+](=O)[O-] [Trifluralin], the NOEC (Bibionidae; development) was 0.25 mg/L, the NOEC (Bibionidae; mortality) was 810 mg/kg and the NOEC (Pimephales promelas) was 0.0003 mg/L. For the same molecule, the LC50 (Colinus virginianus; diet) was 2970 mg/kg, the LD50 (Colinus virginianus) was > 2250 mg/kg and the NOEC (Daphnia magna) was 0.0507 mg/L. For the same molecule, the LD50 (Apis mellifera; duration: 48 hours, dermal) was > 100 µg/piece, the LD50 (Apis mellifera; oral, unspecified) was > 100 µg/piece and the LC50 (Oncorhynchus mykiss) was 0.088 µg/mL (≈ 0.262 µM). For the same molecule, the NOEC (Bird) was 1000 mg/kg, the LC50 (Tagia sp.) was > 1000 mg/kg and the LEL (Aphidius rhopalosiphi) was 1200 g/ha. The LD50 (Rattus norvegicus; acute, oral, mortality) was > 5000 mg/kg, the LOAEL (Rattus norvegicus; chronic, duration: 2 years, histopathology: neoplastic) was 30 mg/kg-day and the NOAEL (Rattus norvegicus; reproduction developmental) was 148 mg/kg-day. For the same molecule, the NOAEL (Rattus norvegicus; subchronic, duration: 90 days) was 2.6 mg/kg-day.
